As usually defined, the EC50 is the midpoint of the concentration-response curve.

Structures are written as SMILES.

Sequence of GLP-1 Receptor (P43220 24-463): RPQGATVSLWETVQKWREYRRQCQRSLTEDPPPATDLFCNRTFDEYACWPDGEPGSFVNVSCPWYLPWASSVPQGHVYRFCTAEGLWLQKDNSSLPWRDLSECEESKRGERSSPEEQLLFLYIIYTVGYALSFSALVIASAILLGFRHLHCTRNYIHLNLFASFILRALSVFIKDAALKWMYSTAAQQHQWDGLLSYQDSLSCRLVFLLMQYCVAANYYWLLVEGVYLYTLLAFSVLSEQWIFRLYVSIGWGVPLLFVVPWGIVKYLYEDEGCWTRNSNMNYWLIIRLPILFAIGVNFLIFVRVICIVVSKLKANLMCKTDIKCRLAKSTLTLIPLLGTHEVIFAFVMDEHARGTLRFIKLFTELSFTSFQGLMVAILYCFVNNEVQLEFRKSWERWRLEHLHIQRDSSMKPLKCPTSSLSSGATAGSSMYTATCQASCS

This assay concerns the target GLP-1 Receptor (Homo sapiens, UniProt P43220). Description: GLP-1R agonist cAMP stimulation assay (HEK293/GLP1R/CRE-LUC cells, HTRF cAMP dynamic 2 kit). In kind it is cell-based. The conditions noted are these: HEK293/CRE-Luc cell line stably expressing the GLP-1 Receptor; 30 min incubation at 37° C. How it is done: Activation of GLP-1 receptor is known to stimulate cyclic AMP (cAMP) production in cells which indicates primary coupling to the Gas subunit of the G protein heterotrimeric complex.
To optimize functional activity directed toward Gas coupling, a HEK293/CRE-Luc cell line developed by HDB stably expressing the GLP-1 Receptor was used. 200× concentration of compound working solutions were prepared (Agilent Technologies Bravo) with 1/2 log serial dilution in 384-well Echo LDV plate (Labcyte, Cat #LP-0200). 50 nL/well 200× concentration of compound working solutions were moved to 384-well white low volume plate (Greiner, Cat #784075) using Labcyte ECHO550. 1×10^5 cells/mL HEK293/GLP1R/CRE-LUC (HD Biosciences) cell suspensions prepared with assay buffer [DPBS containing 0.5 mM IBMX (Sigma, Cat #15879) and 0.10% BSA (GENVIEW, Cat #FA016-100g)], 10 μL cell suspensions were added to each well of previous generated assay plate which already contains 50 nL compound at 200× concentration using ThermoFisher Multidrop Combi (1000 cells/well). Seal the plate and incubate at 37° C. with 5% CO2 for 30 min.
After incubation the cAMP assay signal was generated using cAMP dynamic 2 Kit (Cisbio). 5 μL cAMP-d2 working solution was added to each well, followed with 5 μL Anti-cAMP antibody-cryptate working solution added to each well using ThermoFisher Multidrop Combi. Incubate at room temperature for 1 hour protected from light. Read the fluorescence at 665 and 615 nm with Reader PerkinElmer EnVision.
In general terms: In TR-FRET formats the signal depends on donor and acceptor labels being close together.
The compound `Cc1cc2c(nc1OCc1c(F)cc(Cl)cc1F)CN(Cc1nc3cc(-c4noc(=O)[nH]4)ccc3n1C[C@@H]1CCO1)CC2` [Compound 37, 3-[2-({2-[(4-chloro-2,6-difluorophenyl)methoxy]-3-methyl-5,6,7,8-tetrahydro-1,7-naphthyridin-7-yl}methyl)-1-{[(2S)-oxetan-2-yl]methyl}-1H-1,3-benzodiazol-5-yl]-4,5-dihydro-1,2,4-oxadiazol-5-one] returned an EC50 of under 1 nM. Take `Fc1cc(Cl)ccc1COc1nc2c(cc1C(F)(F)F)CCN(Cc1nc3cc(-c4nnc(C5CC5)[nH]4)ncc3n1C[C@@H]1CCO1)C2` [Compound 65, 2-[(4-chloro-2-fluorophenyl)methoxy]-7-{[6-(5-cyclopropyl-4H-1,2,4-triazol-3-yl)-3-{1[(2S)-oxetan-2-yl]methyl}-3H-imidazo[4,5-c]pyridin-2-yl]methyl}-3-(trifluoromethyl)-5,6,7,8-tetrahydro-1,7-naphthyridine]: the EC50 was under 1 nM.

Turning to `Cc1cc2c(nc1OCc1c(F)cc(Cl)cc1F)CN(Cc1nc3cc(-c4nnc(C#N)[nH]4)cnc3n1C[C@@H]1CCO1)CC2` [Compound 41, 5-[2-({2-[(4-chloro-2,6-difluorophenyl)methoxy]-3-methyl-5,6,7,8-tetrahydro-1,7-naphthyridin-7-yl}methyl)-3-{1[(2S)-oxetan-2-yl]methyl}-3H-imidazo[4,5-b]pyridin-6-yl]-4H-1,2,4-triazole-3-carbonitrile], the EC50 is under 1 nM. As to `Cc1cc2c(nc1OCc1c(F)cc(Cl)cc1F)CN(Cc1nc3cc(-c4nnc(C(F)F)[nH]4)ncc3n1C[C@@H]1CCO1)CC2` [Compound 56, 2-[(4-chloro-2,6-difluorophenyl)methoxy]-7-({6-[5-(difluoromethyl)-4H-1,2,4-triazol-3-yl]-3-{[(2S)-oxetan-2-yl]methyl}-3H-imidazo[4,5-c]pyridin-2-yl}methyl)-3-methyl-5,6,7,8-tetrahydro-1,7-naphthyridine], the EC50 was under 1 nM. `FC(F)(F)c1nnc(-c2cc3nc(CN4CCc5cc(C(F)(F)F)c(OCc6ccc(Cl)cc6)nc5C4)n(C[C@@H]4CCO4)c3cn2)[nH]1` [Compound 54, 2-[(4-chlorophenyl)methoxy]-7-[(3-{1[(2S)-oxetan-2-yl]methyl}-6-[5-(trifluoromethyl)-4H-1,2,4-triazol-3-yl]-3H-imidazo[4,5-c]pyridin-2-yl)methyl]-3-(trifluoromethyl)-5,6,7,8-tetrahydro-1,7-naphthyridine] gave an EC50 of under 1 nM. The same measure for `O=C(NCC(F)(F)F)c1ccc2c(nc(CN3CCc4cc(C(F)(F)F)c(OCc5ccc(Cl)cc5F)nc4C3)n2C[C@@H]2CCO2)c1F` [Compound 21, 2-({2-[(4-chloro-2-fluorophenyl)methoxy]-3-(trifluoromethyl)-5,6,7,8-tetrahydro-1,7-naphthyridin-7-yl}methyl)-4-fluoro-1-{[(2S)-oxetan-2-yl]methyl}-N-(2,2,2-trifluoroethyl)-1H-1,3-benzodiazole-5-carboxamide]: 1 to 300 nM. The same measure for `O=C(O)CCn1cc(-c2cnc3c(c2)nc(CN2CCc4cc(C(F)(F)F)c(OCc5ccc(Cl)cc5F)nc4C2)n3C[C@@H]2CCO2)nn1` [Compound 99, 3-{4-[2-({2-[(4-chloro-2-fluorophenyl)methoxy]-3-(trifluoromethyl)-5,6,7,8-tetrahydro-1,7-naphthyridin-7-yl}methyl)-3-{[(2S)-oxetan-2-yl]methyl}-3H-imidazo[4,5-b]pyridin-6-yl]-1H-1,2,3-triazol-1-yl}propanoic acid]: 1 to 300 nM. Compound `COCCn1c(CN2CCc3cc(C(F)(F)F)c(OCc4ccc(Cl)cc4F)nc3C2)nc2cc(-c3nnc(C(F)(F)F)[nH]3)ncc21` [Compound 80, 2-[(4-chloro-2-fluorophenyl)methoxy]-7-{[3-(2-methoxyethyl)-6-[5-(trifluoromethyl)-4H-1,2,4-triazol-3-yl]-3H-imidazo[4,5-c]pyridin-2-yl]methyl}-3-(trifluoromethyl)-5,6,7,8-tetrahydro-1,7-naphthyridine] showed a half-maximal effective concentration (EC50) of 1 to 300 nM. As to `Fc1cc(Cl)ccc1COc1nc2c(cc1C(F)(F)F)CCN(Cc1nc3cc(-c4nnc(C(F)(F)F)[nH]4)ncc3n1C[C@@H]1CCO1)C2` [Compound 4, 2-[(4-chloro-2-fluorophenyl)methoxy]-7-[(3-{[(2S)-oxetan-2-yl]methyl}-6-[5-(trifluoromethyl)-4H-1,2,4-triazol-3-yl]-3H-imidazo[4,5-c]pyridin-2-yl)methyl]-3-(trifluoromethyl)-5,6,7,8-tetrahydro-1,7-naphthyridine], the EC50 is under 1 nM. The same measure for `O=C(O)c1ccc2c(n1)nc(CN1CCc3cc(C(F)(F)F)c(OCc4ccc(Cl)cc4F)nc3C1)n2C[C@@H]1CCO1` [Compound 25, 2-({2-[(4-chloro-2-fluorophenyl)methoxy]-3-(trifluoromethyl)-5,6,7,8-tetrahydro-1,7-naphthyridin-7-yl}methyl)-1-{[(2S)-oxetan-2-yl]methyl}-1H-imidazo[4,5-b]pyridine-5-carboxylic acid]: 1 to 300 nM; for `Fc1cc(Cl)cc(F)c1COc1nc2c(cc1C(F)(F)F)CCN(Cc1nc3cc(-c4nnn[nH]4)cnc3n1C[C@@H]1CCO1)C2` [Compound 89, 2-[(4-chloro-2,6-difluorophenyl)methoxy]-7-[(3-{[(2S)-oxetan-2-yl]methyl}-6-(11H-1,2,3,4-tetrazol-5-yl)-3H-imidazo[4,5-b]pyridin-2-yl)methyl]-3-(trifluoromethyl)-5,6,7,8-tetrahydro-1,7-naphthyridine]: under 1 nM; for `O=c1[nH]c(-c2ccc3nc(CN4CCc5ccc(OCc6ccc(Cl)cc6F)nc5C4)n(C[C@@H]4CCO4)c3c2)no1` [Compound 2, (S)-3-(2-((2-((4-chloro-2-fluorobenzyl)oxy)-5,8-dihydro-1,7-naphthyridin-7(6H)-yl)methyl)-1-(oxetan-2-ylmethyl)-1H-benzo[d]imidazol-6-yl)-1,2,4-oxadiazol-5(4H)-one]: 1 to 300 nM. `O=c1[nH]c(-c2cc3c(nc(CN4CCc5cc(C(F)(F)F)c(OCc6ccc(Cl)cc6F)nc5C4)n3C[C@@H]3CCO3)s2)no1` [Compound 58, 3-[2-({2-[(4-chloro-2-fluorophenyl)methoxy]-3-(trifluoromethyl)-5,6,7,8-tetrahydro-1,7-naphthyridin-7-yl}methyl)-1-{[(2S)-oxetan-2-yl]methyl}-1H-thieno[2,3-d]imidazol-5-yl]-4,5-dihydro-1,2,4-oxadiazol-5-one]: the 50% effective concentration (EC50) is under 1 nM. For the compound `Fc1cc(Cl)ccc1COc1nc2c(cc1C(F)(F)F)CCN(Cc1nc3cc(-c4nnc(S)[nH]4)ccc3n1C[C@@H]1CCO1)C2` [Compound 85, 5-[2-({2-[(4-chloro-2-fluorophenyl)methoxy]-3-(trifluoromethyl)-5,6,7,8-tetrahydro-1,7-naphthyridin-7-yl}methyl)-1-{[(2S)-oxetan-2-yl]methyl}-1H-1,3-benzodiazol-5-yl]-4H-1,2,4-triazole-3-thiol], the EC50 was under 1 nM. `Cc1ccc(COc2nc3c(cc2C(F)(F)F)CCN(Cc2nc4c(F)c(-c5noc(=O)[nH]5)ccc4n2C[C@@H]2CCO2)C3)c(Cl)c1` [Compound 45] showed an EC50 of under 1 nM. Compound `CS(=O)(=O)NC(=O)c1ccc2c(c1)nc(CN1CCc3cc(C(F)(F)F)c(OCc4ccc(Cl)cc4F)nc3C1)n2C[C@@H]1CCO1` [Compound 93, 2-({2-[(4-chloro-2-fluorophenyl)methoxy]-3-(trifluoromethyl)-5,6,7,8-tetrahydro-1,7-naphthyridin-7-yl}methyl)-N-methanesulfonyl-1-{[(2S)-oxetan-2-yl]methyl}-1H-1,3-benzodiazole-5-carboxamide] yielded an EC50 of under 1 nM. For `Cc1cc(-c2nnc(C(F)(F)F)[nH]2)nnc1CN1CCc2cc(C(F)(F)F)c(OCc3ccc(Cl)cc3F)nc2C1` [Compound 13, 2-[(4-chloro-2-fluorophenyl)methoxy]-7-({4-methyl-6-[5-(trifluoromethyl)-4H-1,2,4-triazol-3-yl]pyridazin-3-yl}methyl)-3-(trifluoromethyl)-5,6,7,8-tetrahydro-1,7-naphthyridine], the EC50 was over 300 nM. `O=C(O)c1cc2nc(CN3CCc4cc(C(F)(F)F)c(OCc5ccc(Cl)cc5F)nc4C3)n(C[C@@H]3CCO3)c2cn1` [Compound 26, 2-({2-[(4-chloro-2-fluorophenyl)methoxy]-3-(trifluoromethyl)-5,6,7,8-tetrahydro-1,7-naphthyridin-7-yl}methyl)-3-{[(2S)-oxetan-2-yl]methyl}-3H-imidazo[4,5-c]pyridine-6-carboxylic acid] yielded an EC50 of under 1 nM. In turn, `CC(c1nc2cc(-c3nnc(C(F)(F)F)[nH]3)ncc2n1C[C@@H]1CCO1)N1CCc2cc(C(F)(F)F)c(OCc3c(F)cc(Cl)cc3F)nc2C1` (stereo partly drawn) [Compound 83, 2-[(4-chloro-2,6-difluorophenyl)methoxy]-7-[1-(3-{1[(2S)-oxetan-2-yl]methyl}-6-[5-(trifluoromethyl)-4H-1,2,4-triazol-3-yl]-3H-imidazo[4,5-c]pyridin-2-yl)ethyl]-3-(trifluoromethyl)-5,6,7,8-tetrahydro-1,7-naphthyridine] had an EC50 of under 1 nM.

These data come from US20250206757A1 (GASHERBRUM BIO, INC., priority 2022, published 2025).
